From article PMC12283027, “Development of Potent and Selective RIPK1 Degraders Targeting Its Nonenzymatic Function for Cancer Treatment” (Journal of Medicinal Chemistry, 2025)

What follows are molecules tested against T1, Receptor-interacting protein kinase 1 (RIPK1) (Homo sapiens, UniProt Q13546) (assay: cell-based). Details: HEK293T-RIPK1-HiBiT cells; read-out: Dmax (HEK293T-RIPK1-HiBiT cell line).
T1 construct: with VHL
Parameters: HiBiT luminescence of CRISPR-tagged endogenous RIPK1 (C-terminal HiBiT) after PROTAC treatment; degradation DC50 and Dmax
Procedure: Screening of RIPK1 Degraders Using HEK-293T-RIPK1-HiBiT cells  3 Primary screening RIPK1 degraders using HEK293T-RIPK1-HiBiT cell line. Cells were seeded in 96-well plates and treated with test compounds for 20 h. After treatment, Bioluminescence signal reflecting RIPK1 protein level was generated by adding Nano-Glo HiBiT detect reagent. A) Bioluminescence signal was visualized using Bio-Rad ChemiDoc MP Imaging system. The grayscale intensity is positively correlated with protein abundance. B) Relative luminescence Units (RLUs) in each well was measured using CLARIOstar plate reader. DC50 values were calculated by nonlinear regression analysis in GraphPad Prism software. DC50 = dose that reduces RIPK1 protein by 50%. D max = maximum reduction of RIPK1 protein achieved by the compound. Guide RNA oligos for RIPK1 (foward: CACCGA-GCCCAT-CCAGGG-TTAGTTC. reverse: AAACGA-ACTAAC-CCTGGA-TGGGCTC) were cloned into Cas9 expression plasmid (pSpCas9–2A-GFP purchased from Addgene), and cotransfected with donor DNA oligo using FuGENE HD Transfection Reagent (Promega). GFP positive cells were FACS sorted and single clones were screened for HiBiT signal by Nano Glo HiBiT Lytic Detection System (Promega).

T1 sequence (Q13546 whole entry): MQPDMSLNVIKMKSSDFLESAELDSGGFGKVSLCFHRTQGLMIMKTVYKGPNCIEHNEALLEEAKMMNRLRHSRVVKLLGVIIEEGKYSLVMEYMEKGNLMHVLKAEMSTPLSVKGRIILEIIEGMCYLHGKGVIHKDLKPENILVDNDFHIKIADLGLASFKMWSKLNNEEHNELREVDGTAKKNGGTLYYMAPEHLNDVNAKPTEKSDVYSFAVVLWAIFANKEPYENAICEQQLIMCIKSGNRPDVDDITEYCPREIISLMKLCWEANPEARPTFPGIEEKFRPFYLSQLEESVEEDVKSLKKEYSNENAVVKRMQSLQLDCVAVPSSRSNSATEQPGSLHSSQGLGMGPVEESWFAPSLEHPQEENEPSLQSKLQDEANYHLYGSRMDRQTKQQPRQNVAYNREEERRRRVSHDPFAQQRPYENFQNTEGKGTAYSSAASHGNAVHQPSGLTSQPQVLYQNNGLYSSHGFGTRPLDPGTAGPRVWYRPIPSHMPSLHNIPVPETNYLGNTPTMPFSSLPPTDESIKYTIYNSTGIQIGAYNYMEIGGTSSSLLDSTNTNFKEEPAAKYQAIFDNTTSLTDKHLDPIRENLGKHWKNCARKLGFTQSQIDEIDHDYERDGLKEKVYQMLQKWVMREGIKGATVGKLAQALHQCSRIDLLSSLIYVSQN
T1 sequence (P40337 whole entry partner): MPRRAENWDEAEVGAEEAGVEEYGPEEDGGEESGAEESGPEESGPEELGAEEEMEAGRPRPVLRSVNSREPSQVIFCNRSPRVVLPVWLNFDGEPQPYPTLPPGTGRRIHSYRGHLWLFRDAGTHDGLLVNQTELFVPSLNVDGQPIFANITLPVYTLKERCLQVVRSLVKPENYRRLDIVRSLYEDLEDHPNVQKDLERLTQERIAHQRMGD

Dmax [%]	SMILES
5	Cc1ncsc1-c1ccc([C@H](C)NC(=O)[C@@H]2C[C@@H](O)CN2C(=O)[C@@H](NC(=O)CCN2CCN(C(=O)CNC(=O)Cn3cc(-c4cnc(N)c5c(-c6ccc7c(c6)CCN7C(=O)Cc6ccccc6)csc45)cn3)CC2)C(C)(C)C)cc1 [229-3]
9	Cc1ncsc1-c1ccc([C@H](C)NC(=O)[C@@H]2C[C@@H](O)CN2C(=O)[C@@H](NC(=O)CCCCNC2CCN(C(=O)Cn3cc(-c4cnc(N)c5c(-c6ccc7c(c6)CCN7C(=O)Cc6ccccc6)csc45)cn3)CC2)C(C)(C)C)cc1 [229-2]
90	Cc1ncsc1-c1ccc([C@H](C)NC(=O)[C@@H]2C[C@@H](O)CN2C(=O)[C@@H](NC(=O)CCCCOc2ccc(CNC(=O)Cn3cc(-c4cnc(N)c5c(-c6ccc7c(c6)CCN7C(=O)Cc6ccccc6)csc45)cn3)cc2)C(C)(C)C)cc1 [214-8]
22	Cc1ncsc1-c1ccc([C@H](C)NC(=O)[C@@H]2C[C@@H](O)CN2C(=O)[C@@H](NC(=O)C2CCN(CCCNC(=O)Cn3cc(-c4cnc(N)c5c(-c6ccc7c(c6)CCN7C(=O)Cc6ccccc6)csc45)cn3)CC2)C(C)(C)C)cc1 [225-7]
58	Cc1ncsc1-c1ccc([C@H](C)NC(=O)[C@@H]2C[C@@H](O)CN2C(=O)[C@@H](NC(=O)CCCCCN2CCN(C(=O)Cn3cc(-c4cnc(N)c5c(-c6ccc7c(c6)CCN7C(=O)Cc6ccccc6)csc45)cn3)CC2)C(C)(C)C)cc1 [229-1]
93	Cc1ncsc1-c1ccc([C@H](C)NC(=O)[C@@H]2C[C@@H](O)CN2C(=O)[C@@H](NC(=O)COCCOc2ccc(CCNC(=O)Cn3cc(-c4cnc(N)c5c(-c6ccc7c(c6)CCN7C(=O)Cc6ccccc6)csc45)cn3)cc2)C(C)(C)C)cc1 [224-6]
